# Experimental data reported in patent publication US20250059185A1 (Hoffmann-La Roche Inc., priority 2021, published 2025).
# Molecular target: MAGL (Homo sapiens (Human), UniProt Q99685)
# Test: 2-AG assay (MAGL inhibitory activity, hydrolysis of 2-arachidonoylglycerol followed by mass spectrometry)
# Type: biochemical
# Conditions: 50 pM MAGL protein, 15 min pre-incubation, 30 min incubation at RT
# Summary of the method: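 Human MAGL (50 pM final) preincubated 15 min at RT with compound (3-fold dilutions, 12.5 μM to 0.8 pM final) in 50 mM TRIS, 1 mM EDTA, 0.01% Tween-20, 2.5% DMSO. Reaction with […] 2-AG ran 30 min at RT, then was quenched with acetonitrile containing d8-arachidonic acid. Arachidonic acid measured by SPE–triple-quad MS (negative ESI), activity from the arachidonic/d8-arachidonic acid intensity ratio.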
# Chain of MAGL (Q99685 whole entry, species assumed): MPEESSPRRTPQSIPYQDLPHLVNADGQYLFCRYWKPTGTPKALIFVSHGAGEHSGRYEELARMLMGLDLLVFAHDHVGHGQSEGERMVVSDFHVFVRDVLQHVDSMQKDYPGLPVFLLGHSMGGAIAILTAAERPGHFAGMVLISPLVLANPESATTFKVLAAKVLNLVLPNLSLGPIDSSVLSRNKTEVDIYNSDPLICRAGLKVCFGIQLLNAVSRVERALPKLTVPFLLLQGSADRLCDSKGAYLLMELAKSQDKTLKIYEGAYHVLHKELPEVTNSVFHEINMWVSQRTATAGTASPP
row,Structure (SMILES),IC50 [nM]
1,"CC1c2nn(C)c(-c3cc(Cl)cc(C4(C(N)=O)CC4)c3)c2CCN1C(=O)c1cc(F)cc(OCC2CNC(=O)C2)c1Cl (stereo not drawn) [Example 70, 1-[3-chloro-5-[6-[2-chloro-5-fluoro-3-[(5-oxopyrrolidin-3-yl)methoxy]benzoyl]-2,7-dimethyl-5,7-dihydro-4H-pyrazolo[3,4-c]pyridin-3-yl]phenyl]cyclopropanecarboxamide]",42
2,"C[C@H]1c2nn(C)c(-c3cc(Cl)cc(C4(C(N)=O)CC4)c3)c2CCN1C(=O)c1cc(F)cc(-c2c[nH]c(C#N)c2)c1Cl [Example 71, 1-[3-chloro-5-[(7S)-6-[2-chloro-3-(5-cyano-1H-pyrrol-3-yl)-5-fluoro-benzoyl]-2,7-dimethyl-5,7-dihydro-4H-pyrazolo[3,4-c]pyridin-3-yl]phenyl]cyclopropanecarboxamide]",2160
3,"C[C@@H]1c2nn(C)c(-c3cc(Cl)cc(C4(C(N)=O)CC4)c3)c2CCN1C(=O)c1cc(F)cc(-c2c[nH]c(C#N)c2)c1Cl [Example 72, 1-[3-chloro-5-[(7R)-6-[2-chloro-3-(5-cyano-1H-pyrrol-3-yl)-5-fluoro-benzoyl]-2,7-dimethyl-5,7-dihydro-4H-pyrazolo[3,4-c]pyridin-3-yl]phenyl]cyclopropanecarboxamide]",62
4,"C[C@H]1c2nn(C)c(-c3cc(Cl)cc(C4(S(C)(=O)=O)CC4)c3)c2CCN1C(=O)c1cc(F)cc(-c2ccc(=O)[nH]c2)c1Cl [Example 73, 5-[2-chloro-3-[(7S)-3-[3-chloro-5-(1-methylsulfonylcyclopropyl)phenyl]-2,7-dimethyl-5,7-dihydro-4H-pyrazolo[3,4-c]pyridine-6-carbonyl]-5-fluoro-phenyl]-1H-pyridin-2-one]",145
5,"C[C@@H]1c2nn(C)c(-c3cc(Cl)cc(C4(S(C)(=O)=O)CC4)c3)c2CCN1C(=O)c1cc(F)cc(-c2ccc(=O)[nH]c2)c1Cl [Example 74, 5-[2-chloro-3-[(7R)-3-[3-chloro-5-(1-methylsulfonylcyclopropyl)phenyl]-2,7-dimethyl-5,7-dihydro-4H-pyrazolo[3,4-c]pyridine-6-carbonyl]-5-fluoro-phenyl]-1H-pyridin-2-one]",293
6,"C[C@H]1c2nn(C)c(-c3cc(Cl)cc(C4(C(N)=O)CC4)c3)c2CCN1C(=O)c1cc(F)cc(N2CC3(C2)CS(=O)(=O)C3)c1Cl [Example 75, 1-[3-chloro-5-[(7S)-6-[2-chloro-3-(2,2-dioxo-2λ^6-thia-6-azaspiro[3.3]heptan-6-yl)-5-fluoro-benzoyl]-2,7-dimethyl-5,7-dihydro-4H-pyrazolo[3,4-c]pyridin-3-yl]phenyl]cyclopropanecarboxamide]",1240
7,"C[C@@H]1c2nn(C)c(-c3cc(Cl)cc(C4(C(N)=O)CC4)c3)c2CCN1C(=O)c1cc(F)cc(N2CC3(C2)CS(=O)(=O)C3)c1Cl [Example 76, 1-[3-chloro-5-[(7R)-6-[2-chloro-3-(2,2-dioxo-2λ^6-thia-6-azaspiro[3.3]heptan-6-yl)-5-fluoro-benzoyl]-2,7-dimethyl-5,7-dihydro-4H-pyrazolo[3,4-c]pyridin-3-yl]phenyl]cyclopropanecarboxamide]",1420
8,"C[C@H]1c2nn(C)c(-c3cc(F)cc(F)c3)c2CCN1C(=O)c1ncn(-c2ccc[nH]c2=O)c1Cl [Example 77, 3-[5-chloro-4-[(7S)-3-(3,5-difluorophenyl)-2,7-dimethyl-5,7-dihydro-4H-pyrazolo[3,4-c]pyridine-6-carbonyl]imidazol-1-yl]-1H-pyridin-2-one]",1460
9,"C[C@H]1c2nn(C)c(-c3cc(Cl)cc(C4(S(C)(=O)=O)CC4)c3)c2CCN1C(=O)c1ncn(-c2ccc[nH]c2=O)n1 [Example 78, 3-[3-[(7S)-3-[3-chloro-5-(1-methylsulfonylcyclopropyl)phenyl]-2,7-dimethyl-5,7-dihydro-4H-pyrazolo[3,4-c]pyridine-6-carbonyl]-1,2,4-triazol-1-yl]-1H-pyridin-2-one]",275
10,"COCCOc1cc(Cl)cc(-c2c3c(nn2C)[C@@H](C)N(C(=O)c2cccc(OC)c2Cl)CC3)c1 [Example 79, [(7R)-3-[3-chloro-5-(2-methoxyethoxy)phenyl]-2,7-dimethyl-5,7-dihydro-4H-pyrazolo[3,4-c]pyridin-6-yl]-(2-chloro-3-methoxy-phenyl)methanone]",1240
11,"COc1cccc(C(=O)N2CCc3c(nn(C)c3-c3cc(CNS(C)(=O)=O)cc(Cl)n3)C2C)c1Cl (stereo not drawn) [Example 80, N-[[2-chloro-6-[6-(2-chloro-3-methoxy-benzoyl)-2,7-dimethyl-5,7-dihydro-4H-pyrazolo[3,4-c]pyridin-3-yl]-4-pyridyl]methyl]methanesulfonamide]",240
12,"COc1cccc(C(=O)N2CCc3c(nn(C)c3-c3ccnc(C(F)(F)F)n3)[C@@H]2C)c1Cl [Example 81, (2-chloro-3-methoxy-phenyl)-[(7S)-2,7-dimethyl-3-[2-(trifluoromethyl)pyrimidin-4-yl]-5,7-dihydro-4H-pyrazolo[3,4-c]pyridin-6-yl]methanone]",21
13,"CC1c2nn(C)c(-c3cc(Cl)cc(C4(NS(C)(=O)=O)CC4)c3)c2CCN1C(=O)c1cc(F)cc(-c2c[nH]c(C#N)c2)c1Cl (stereo not drawn) [Example 84, N-[1-[3-chloro-5-[6-[2-chloro-3-(5-cyano-1H-pyrrol-3-yl)-5-fluoro-benzoyl]-2,7-dimethyl-5,7-dihydro-4H-pyrazolo[3,4-c]pyridin-3-yl]phenyl]cyclopropyl]methanesulfonamide]",6.18
14,"C[C@H]1c2nn(C)c(-c3cc(Cl)cc(C4(NS(C)(=O)=O)CC4)c3)c2CCN1C(=O)c1cc(F)cc(-c2c[nH]c(C#N)c2)c1Cl [Example 85, N-[1-[3-chloro-5-[(7S)-6-[2-chloro-3-(5-cyano-1H-pyrrol-3-yl)-5-fluoro-benzoyl]-2,7-dimethyl-5,7-dihydro-4H-pyrazolo[3,4-c]pyridin-3-yl]phenyl]cyclopropyl]methanesulfonamide]",13.8
15,"C[C@@H]1c2nn(C)c(-c3cc(Cl)cc(C4(NS(C)(=O)=O)CC4)c3)c2CCN1C(=O)c1cc(F)cc(-c2c[nH]c(C#N)c2)c1Cl [Example 86, N-[1-[3-chloro-5-[(7R)-6-[2-chloro-3-(5-cyano-1H-pyrrol-3-yl)-5-fluoro-benzoyl]-2,7-dimethyl-5,7-dihydro-4H-pyrazolo[3,4-c]pyridin-3-yl]phenyl]cyclopropyl]methanesulfonamide]",1010
16,"CC1c2nn(C)c(-c3cc(Cl)cc(C4(NS(C)(=O)=O)CC4)c3)c2CCN1C(=O)c1cc(F)cc(CCc2c[nH]nn2)c1Cl (stereo not drawn) [Example 87, N-[1-[3-chloro-5-[6-[2-chloro-5-fluoro-3-[2-(H-triazol-4-yl)ethyl]benzoyl]-2,7-dimethyl-5,7-dihydro-4H-pyrazolo[3,4-c]pyridin-3-yl]phenyl]cyclopropyl]methanesulfonamide]",8.15
17,"C[C@H]1c2nn(C)c(-c3cc(Cl)cc(C4(NS(C)(=O)=O)CC4)c3)c2CCN1C(=O)c1cc(F)cc(CCc2c[nH]nn2)c1Cl [Example 88, N-[1-[3-chloro-5-[(7S)-6-[2-chloro-5-fluoro-3-[2-(1H-triazol-4-yl)ethyl]benzoyl]-2,7-dimethyl-5,7-dihydro-4H-pyrazolo[3,4-c]pyridin-3-yl]phenyl]cyclopropyl]methanesulfonamide]",1.77
18,"C[C@@H]1c2nn(C)c(-c3cc(Cl)cc(C4(NS(C)(=O)=O)CC4)c3)c2CCN1C(=O)c1cc(F)cc(CCc2c[nH]nn2)c1Cl [Example 89, N-[1-[3-chloro-5-[(7R)-6-[2-chloro-5-fluoro-3-[2-(1H-triazol-4-yl)ethyl]benzoyl]-2,7-dimethyl-5,7-dihydro-4H-pyrazolo[3,4-c]pyridin-3-yl]phenyl]cyclopropyl]methanesulfonamide]",26.8
19,"C[C@H]1c2nn(C)c(-c3cc(F)c(F)c(F)c3F)c2CCN1C(=O)c1cc(F)cc(-c2c[nH]c(C#N)c2)c1Cl [Example 90, 4-[2-chloro-3-[(7S)-2,7-dimethyl-3-(2,3,4,5-tetrafluorophenyl)-5,7-dihydro-4H-pyrazolo[3,4-c]pyridine-6-carbonyl]-5-fluoro-phenyl]-1H-pyrrole-2-carbonitrile]",24.6
20,"C[C@H]1c2nn(C)c(-c3cc(Cl)cc(C4(NS(C)(=O)=O)CC4)c3)c2CCN1C(=O)c1ncn(-c2cc(Cl)cnc2O)n1 [Example 91, N-[1-[3-chloro-5-[(7S)-6-[1-(5-chloro-2-hydroxy-3-pyridyl)-1,2,4-triazole-3-carbonyl]-2,7-dimethyl-5,7-dihydro-4H-pyrazolo[3,4-c]pyridin-3-yl]phenyl]cyclopropyl]methanesulfonamide]",1730
21,"C[C@H]1c2nn(C)c(-c3cc(F)c(F)c(F)c3)c2CCN1C(=O)c1cc(F)cc(-c2c[nH]c(C#N)c2)c1Cl [Example 92, 4-[2-chloro-3-[(7S)-2,7-dimethyl-3-(3,4,5-trifluorophenyl)-5,7-dihydro-4H-pyrazolo[3,4-c]pyridine-6-carbonyl]-5-fluoro-phenyl]-1H-pyrrole-2-carbonitrile]",4.35
22,"C[C@@H]1c2nn(C)c(-c3cc(F)c(F)c(F)c3)c2CCN1C(=O)c1cc(F)cc(-c2c[nH]c(C#N)c2)c1Cl [Example 93, 4-[2-chloro-3-[(7R)-2,7-dimethyl-3-(3,4,5-trifluorophenyl)-5,7-dihydro-4H-pyrazolo[3,4-c]pyridine-6-carbonyl]-5-fluoro-phenyl]-1H-pyrrole-2-carbonitrile]",734
23,"C[C@H]1c2nn(C)c(-c3cc(Cl)cc(C4(NS(C)(=O)=O)CC4)c3)c2CCN1C(=O)c1cc(F)cc(-c2cn[nH]c2)c1F [Example 94, N-[1-[3-chloro-5-[(7S)-6-[2,5-difluoro-3-(1H-pyrazol-4-yl)benzoyl]-2,7-dimethyl-5,7-dihydro-4H-pyrazolo[3,4-c]pyridin-3-yl]phenyl]cyclopropyl]methanesulfonamide]",472
24,"COc1cccc(C(=O)N2CCc3c(nn(C)c3-c3cc(Cl)cc(CC(C)(C)O)c3)[C@@H]2C)c1Cl [Example 95, [(7S)-3-[3-chloro-5-(2-hydroxy-2-methyl-propyl)phenyl]-2,7-dimethyl-5,7-dihydro-4H-pyrazolo[3,4-c]pyridin-6-yl]-(2-chloro-3-methoxy-phenyl)methanone]",16.9
